# According to patent US7700584B2 (Hangzhou Minsheng Pharmaceuticals Co., Ltd., priority 2004, dated 2010):
# Where two headings read alike, the source gives them in different places.
# What was measured:
# [1] = tested on: U-937 human histocytic lymphoma; test: In vitro inhibition rate to tumor cells (MTT), U-937; assay type: cell-based; conditions: for inhibition rate, Results (%) U-937: 50 μg/ml; for inhibition at 50 µg/mL: Homo sapiens, U-937, 50 μg/ml, read-out: inhibition rate, Results (%) U-937
# [2] = tested on: A-549 human lung adenocarcinoma; test: In vitro inhibition rate to tumor cells (MTT), A-549; assay type: cell-based; conditions: for inhibition rate, Results (%) A-549: 50 μg/ml; for inhibition at 50 µg/mL: Homo sapiens, A549, 50 μg/ml, read-out: inhibition rate, Results (%) A-549
# [3] = tested on: Bel-7402 human hepatic carcinoma; test: In vitro inhibition rate to tumor cells (MTT), Bel-7402; assay type: cell-based; conditions: for inhibition rate, Results (%) Bel-7402: 50 μg/ml; for inhibition at 50 µg/mL: Homo sapiens, Bel-7402, 50 μg/ml, read-out: inhibition rate, Results (%) Bel-7402
# [4] = tested on: MCF-7 human mammary adenocarcinoma; test: In vitro inhibition rate to tumor cells (MTT), MCF-7; assay type: cell-based; conditions: for inhibition rate, Results (%) MCF-7: 50 μg/ml; for inhibition at 50 µg/mL: Homo sapiens, MCF7, 50 μg/ml, read-out: inhibition rate, Results (%) MCF-7
# [5] = tested on: SMMC-7721 human hepatic carcinoma; test: In vitro inhibition rate to tumor cells (MTT), SMMC-7721; assay type: cell-based; conditions: for inhibition rate, Results (%) SMMC-7721: 50 μg/ml; for inhibition at 50 µg/mL: Homo sapiens, SMMC-7721, 50 μg/ml, read-out: inhibition rate, Results (%) SMMC-7721
# [6] = tested on: HL-60 human promyelocytic leukemia; test: In vitro inhibition rate to tumor cells (MTT), HL-60; assay type: cell-based; conditions: for inhibition rate, Results (%) HL-60: 50 μg/ml; for inhibition at 50 µg/mL: Homo sapiens, HL-60, 50 μg/ml, read-out: inhibition rate, Results (%) HL-60
# [7] = tested on: Hela human cervical carcinoma; test: In vitro inhibition rate to tumor cells (MTT), Hela; assay type: cell-based; conditions: 50 μg/ml; for inhibition at 50 µg/mL: Homo sapiens, HeLa, read-out: inhibition rate, Results (%) Hela
# [8] = tested on: LLC mouse Lewis lung carcinoma; test: In vitro inhibition rate to tumor cells (MTT), LLC; assay type: cell-based; conditions: 50 μg/ml; for inhibition at 50 µg/mL: Mus musculus, Lewis lung carcinoma
# [9] = tested on: Hela human cervical carcinoma; test: In vitro anti-tumor IC50 (MTT), Hela; assay type: cell-based; conditions: Table 4
# Method: (§1) (1) Single cell suspension was seeded into 96-well plates (the cells was diluted in the PRMI-1640 minimum medium to 3×10^4 cells/ml, […] diluted cells/well). […] The experiments were performed in quadruplicate.
# (§2) (2) The medium was removed. Solutions of the anti-tumor agents (50 compounds) were prepared in a freshly prepared medium at serial concentrations. […] of the solution was added into each well. Incubation was continued for 48 hours.
# (§3) (3) 20 ug of 2 mg/ml MTT was added into each well, and incubated for 4 hours.
# (§4) (4) The medium was removed from the well. The microplates were swiftly turned down to throw-off the medium. […] of DMSO was added into each well, and vortexed at room temperature for 10 minutes.
# (§5) (5) OD value (λ=570 nm) was measured with an Enzyme-Linked Detector.
# (§6) (6) The graph of cell vitality was plotted, and IC50 was calculated.
# [10] = tested on: U-937 human histocytic lymphoma; test: In vitro anti-tumor IC50 (MTT), U-937; assay type: cell-based; conditions: Table 4
# Method: as §1, §2, §3, §4, §5, §6
# [11] = assay type: cell-based, VSV; conditions: 200 μg/ml, 24 hrs after infection
# Hepatitis B virus (HBV) = assay type: cell-based; conditions: 200 μg/ml; for (Value of the positive control - Measured Value) Value of the positive control × 100%: decrease of HBeAg relative to positive control; for OD450 of HBeAg: supernatant four days after infection, positive control 1.917, negative 0.057
# HepG2 cells = test: Cell status of HepG2 cells treated with sample (HBV screening); assay type: cell-based; conditions: 200 μg/ml, HepG2, four days after infection
# MDCK (dog kidney) cells = test: Toxicity TC50 of the samples in MDCK cells (influenza screening); conditions: concentration of 50% toxicity
# 293 cells = test: Cell status of 293 cells treated with sample alone (herpes virus screening)
# [12] = background statement; cited from earlier work
# mouse sarcoma 37 = conditions: 75 mg/Kg, subcutaneous injection; cited from earlier work
# uterine cervix cancer = conditions: 75 mg/Kg, subcutaneous injection; cited from earlier work
# [13] = tested on: Ehrlich's ascites carcinoma (EAC); conditions: 75 mg/Kg, subcutaneous injection; cited from earlier work
# [14] = 50 μg/ml, 293 cells without virus, 12 hrs
structure (smiles),measurement,setting,value
"CCCCNC=C1CC2(O)OC3(CC2C(C)C)C(C)CCC13.Cl (centres unmarked) [Compound 14, Curcumol n-butyl amine hydrochloride]","inhibition rate, Results (%) U-937",[1]; Table 1,82.88%
same,"inhibition rate, Results (%) U-937",[1]; Table 2 (repeated screening),81.23%
same,"inhibition rate, Results (%) A-549",[2]; Table 1,8.09%
same,"inhibition rate, Results (%) A-549",[2]; Table 2 (repeated screening),9.23%
same,"inhibition rate, Results (%) Bel-7402",[3]; Table 1,32.00%
same,"inhibition rate, Results (%) Bel-7402",[3]; Table 2 (repeated screening),23.56%
same,"inhibition rate, Results (%) MCF-7",[4]; Table 1,56.30%
same,"inhibition rate, Results (%) MCF-7",[4]; Table 2 (repeated screening),54.23%
same,"inhibition rate, Results (%) SMMC-7721",[5]; Table 1,6.14%
same,"inhibition rate, Results (%) SMMC-7721",[5]; Table 2 (repeated screening),3.21%
same,"inhibition rate, Results (%) HL-60",[6]; Table 1,2.45%
same,"inhibition rate, Results (%) HL-60",[6]; Table 2 (repeated screening),4.35%
same,"inhibition rate, Results (%) Hela",[7]; Table 1,75.46%
same,"inhibition rate, Results (%) Hela",[7]; Table 2 (repeated screening),76.32%
same,"inhibition rate, Results (%) LLC",[8]; Table 1,−10.57%
same,"inhibition rate, Results (%) LLC",[8]; Table 2 (repeated screening),−14.29%
same,"IC50 (ug/ml) against tumor cell lines, Hela",[9],1.5 µg/mL
same,"IC50 (ug/ml) against tumor cell lines, U-937",[10],0.58 µg/mL
same,"Cytopathy and cell status, Sample + VSV",[11],"Cytopathy, poor"
same,(Value of the positive control - Measured Value) Value of the positive control × 100%,Hepatitis B virus (HBV),97.24%
same,OD450 of HBeAg,Hepatitis B virus (HBV),0.053
same,Cell status,HepG2 cells,Poor
same,TC50,MDCK (dog kidney) cells,143.17 µg/mL
same,"Cytopathy and cell status, Sample",293 cells; [14],Good
same,"Cytopathy and cell status, Sample","293 cells; 200 μg/ml, 24 hrs",Poor
"C=C1CC2(O)OC3(CC2C(C)C)C(C)CCC13 (centres unmarked) [Curcumol E, Curcumol, reference compound]",inhibition at 50 µg/mL,[1]; Table 1,28%
same,inhibition at 50 µg/mL,[1]; Table 2 (repeated screening),14.3%
same,inhibition at 50 µg/mL,[1]; Table 3 (repeated screening),19.8%
same,inhibition at 50 µg/mL,[2]; Table 1,-0.57%
same,inhibition at 50 µg/mL,[2]; Table 2 (repeated screening),-11.3%
same,inhibition at 50 µg/mL,[2]; Table 3 (repeated screening),-16.6%
same,inhibition at 50 µg/mL,[3]; Table 1,4.79%
same,inhibition at 50 µg/mL,[3]; Table 2 (repeated screening),9.87%
same,inhibition at 50 µg/mL,[3]; Table 3 (repeated screening),9.78%
same,inhibition at 50 µg/mL,[4]; Table 1,55.6%
same,inhibition at 50 µg/mL,[4]; Table 2 (repeated screening),50.2%
same,inhibition at 50 µg/mL,[4]; Table 3 (repeated screening),51.2%
same,inhibition at 50 µg/mL,[5]; Table 1,-11.5%
same,inhibition at 50 µg/mL,[5]; Table 2 (repeated screening),-12.3%
same,inhibition at 50 µg/mL,[5]; Table 3 (repeated screening),-0.23%
same,inhibition at 50 µg/mL,[6]; Table 1,1.32%
same,inhibition at 50 µg/mL,[6]; Table 2 (repeated screening),1.23%
same,inhibition at 50 µg/mL,[6]; Table 3 (repeated screening),1.79%
same,inhibition at 50 µg/mL,[7]; Table 1,86.8%
same,inhibition at 50 µg/mL,[7]; Table 2 (repeated screening),70.1%
same,inhibition at 50 µg/mL,[7]; Table 3 (repeated screening),78.6%
same,inhibition at 50 µg/mL,[8]; Table 1,-3.04%
same,inhibition at 50 µg/mL,[8]; Table 2 (repeated screening),-8.9%
same,inhibition at 50 µg/mL,[8]; Table 3 (repeated screening),-14.4%
same,IC50,"[9]; Homo sapiens, HeLa, read-out: IC50 (ug/ml) against tumor cell lines, Hela",3.23 µg/mL
same,(Value of the positive control - Measured Value) Value of the positive control × 100%,Hepatitis B virus (HBV),−38.4455%
same,OD450 of HBeAg,Hepatitis B virus (HBV),2.654
same,Cell status,HepG2 cells,Normal
same,water solubility (in words),[12],Poor water solubility
same,inhibition rate against mouse sarcoma 37 (in words),mouse sarcoma 37,high inhibition rate
same,inhibition rate against uterine cervix cancer (in words),uterine cervix cancer,high inhibition rate
same,inhibition rate against Ehrlich's ascites carcinoma (in words),[13],high inhibition rate
same,TC50,MDCK (dog kidney) cells,>1000 µg/mL
same,"Cytopathy and cell status, Sample",293 cells; [14],Good
